Test system: Mycobacterium tuberculosis
Assay: (§1) Inhibition of Mycobacterium tuberculosis chorismate mutase expressed in Escherichia coli BL21 (DE3) assessed as conversion of chorismate to prephenate after 5 mins

Compound | inhibition
CS(=O)(=O)Nc1ccc(F)cc1-c1cc2cc(F)ccc2n1S(C)(=O)=O | Dose-dependent effect

Test system: not listed separately
Assay: as §1

Compound | IC50
CS(=O)(=O)Nc1ccc(F)cc1-c1cc2cc(F)ccc2n1S(C)(=O)=O | 17 µM
COc1ccc(CCNc2c([N+](=O)[O-])cc(C(=O)O)cc2S(N)(=O)=O)cc1OC | < 10 µM

Test system: Mycobacterium tuberculosis
Assay: Inhibition of Mycobacterium tuberculosis chorismate mutase expressed in Escherichia coli BL21 (DE3) assessed as conversion of chorismate to prephenate at 50 uM after 5 mins

Compound | inhibition
CC(=O)c1ccc(NS(C)(=O)=O)c(-c2cc3cc(C(C)=O)ccc3n2S(C)(=O)=O)c1 | 30%
Cc1ccc(S(=O)(=O)Nc2ccc(C)cc2-c2cc3cc(C)ccc3n2S(=O)(=O)c2ccc(C)cc2)cc1 | 15%
Cc1ccc(S(=O)(=O)Nc2ccccc2-c2cc3ccccc3n2S(=O)(=O)c2ccc(C)cc2)cc1 | 12%
Cc1ccc(NS(C)(=O)=O)c(-c2cc3cc(C)ccc3n2S(C)(=O)=O)c1 | 42%
CS(=O)(=O)Nc1ccc(C#N)cc1-c1cc2cc(C#N)ccc2n1S(C)(=O)=O | 20%
Cc1ccc(S(=O)(=O)Nc2ccc(C(F)(F)F)cc2-c2cc3cc(C(F)(F)F)ccc3n2S(=O)(=O)c2ccc(C)cc2)cc1 | 12%
CS(=O)(=O)Nc1ccc(F)cc1-c1cc2cc(F)ccc2n1S(C)(=O)=O | 69%
CS(=O)(=O)Nc1ccccc1-c1cc2ccccc2n1S(C)(=O)=O | 40%
Cc1ccc(S(=O)(=O)Nc2ccc(F)cc2-c2cc3cc(F)ccc3n2S(=O)(=O)c2ccc(C)cc2)cc1 | 15%
Cc1ccc(S(=O)(=O)Nc2ccc(Cl)cc2-c2cc3cc(Cl)ccc3n2S(=O)(=O)c2ccc(C)cc2)cc1 | 10%
COc1ccc(NS(C)(=O)=O)c(-c2cc3cc(OC)ccc3n2S(C)(=O)=O)c1 | 50%
CS(=O)(=O)Nc1ccc(C(F)(F)F)cc1-c1cc2cc(C(F)(F)F)ccc2n1S(C)(=O)=O | 25%
CS(=O)(=O)Nc1ccc([N+](=O)[O-])cc1-c1cc2cc([N+](=O)[O-])ccc2n1S(C)(=O)=O | 15%
CS(=O)(=O)Nc1ccc(Cl)cc1-c1cc2cc(Cl)ccc2n1S(C)(=O)=O | 45%
